Data from ChEMBL document CHEMBL1151900, “Steroidal bivalent ligands for the estrogen receptor: design, synthesis, characterization and binding affinities” (Bioorg Med Chem, 2009).

Columns and labels:
[1] = target: Estrogen receptor beta (Homo sapiens) (UniProt Q92731); assay: Displacement of [3H]estradiol from full-length human estrogen receptor beta by radiometric assay relative to estradiol
[2] = target: T1, Estrogen receptor (Homo sapiens) (UniProt P03372); assay: Displacement of [3H]estradiol from full-length human estrogen receptor alpha by radiometric assay relative to estradiol
T1 sequence (whole entry): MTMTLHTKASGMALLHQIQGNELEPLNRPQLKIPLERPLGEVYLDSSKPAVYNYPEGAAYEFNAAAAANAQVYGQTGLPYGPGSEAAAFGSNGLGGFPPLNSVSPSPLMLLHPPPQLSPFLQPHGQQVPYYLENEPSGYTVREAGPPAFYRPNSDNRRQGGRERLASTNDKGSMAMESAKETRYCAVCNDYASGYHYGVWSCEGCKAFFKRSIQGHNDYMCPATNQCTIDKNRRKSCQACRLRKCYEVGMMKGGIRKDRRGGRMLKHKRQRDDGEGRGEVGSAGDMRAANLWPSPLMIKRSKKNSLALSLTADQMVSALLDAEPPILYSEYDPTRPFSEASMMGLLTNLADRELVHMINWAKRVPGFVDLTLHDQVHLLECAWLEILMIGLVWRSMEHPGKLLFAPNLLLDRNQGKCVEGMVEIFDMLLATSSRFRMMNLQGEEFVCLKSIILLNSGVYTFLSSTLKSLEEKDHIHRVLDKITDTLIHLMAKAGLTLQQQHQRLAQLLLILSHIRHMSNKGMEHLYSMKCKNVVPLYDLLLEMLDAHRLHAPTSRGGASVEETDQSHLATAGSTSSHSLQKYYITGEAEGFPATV

Estrogen receptor beta (Homo sapiens), sequence (Q92731 whole entry): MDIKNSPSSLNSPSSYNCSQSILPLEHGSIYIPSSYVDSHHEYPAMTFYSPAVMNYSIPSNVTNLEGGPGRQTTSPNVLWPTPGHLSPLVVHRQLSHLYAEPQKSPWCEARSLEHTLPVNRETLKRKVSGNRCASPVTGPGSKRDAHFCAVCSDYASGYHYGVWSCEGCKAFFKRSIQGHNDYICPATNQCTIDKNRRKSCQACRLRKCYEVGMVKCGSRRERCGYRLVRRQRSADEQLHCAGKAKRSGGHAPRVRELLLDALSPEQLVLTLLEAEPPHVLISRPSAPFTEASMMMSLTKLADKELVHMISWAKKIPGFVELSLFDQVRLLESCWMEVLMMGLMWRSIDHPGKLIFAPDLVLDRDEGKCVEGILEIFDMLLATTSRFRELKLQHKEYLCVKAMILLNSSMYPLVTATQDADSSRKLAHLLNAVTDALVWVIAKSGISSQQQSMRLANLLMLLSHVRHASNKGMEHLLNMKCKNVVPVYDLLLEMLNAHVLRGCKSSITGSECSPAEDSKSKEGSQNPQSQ

Row | Structure (SMILES) | RBA [1] [%] | RBA [2] [%]
1 | C[C@]12CC[C@@H]3c4ccc(O)cc4CC[C@H]3[C@@H]1CC[C@@]2(O)C#Cc1ccc(OCCCCOCCCCOCCCCOc2ccc(C#C[C@]3(O)CC[C@H]4[C@@H]5CCc6cc(O)ccc6[C@H]5CC[C@@]43C)cc2)cc1 | 1.5 | 4.5
2 | C[C@]12CC[C@@H]3c4ccc(O)cc4CC[C@H]3[C@@H]1CC[C@@]2(O)C#Cc1ccc(OCCCOCCCOCCCOCCCOCCCOc2ccc(C#C[C@]3(O)CC[C@H]4[C@@H]5CCc6cc(O)ccc6[C@H]5CC[C@@]43C)cc2)cc1 | 0.69 | 2.3
3 | C[C@]12CC[C@@H]3c4ccc(O)cc4CC[C@H]3[C@@H]1CC[C@@]2(O)C#Cc1ccc(OCCCCOCCCCOCCCCOCCCCOc2ccc(C#C[C@]3(O)CC[C@H]4[C@@H]5CCc6cc(O)ccc6[C@H]5CC[C@@]43C)cc2)cc1 | 0.76 | 2.6
4 | C[C@]12CC[C@@H]3c4ccc(O)cc4CC[C@H]3[C@@H]1CC[C@@]2(O)C#Cc1ccc(OCCCOCCCOc2ccc(C#C[C@]3(O)CC[C@H]4[C@@H]5CCc6cc(O)ccc6[C@H]5CC[C@@]43C)cc2)cc1 | 0.38 | 0.9
5 | C[C@]12CC[C@@H]3c4ccc(O)cc4CC[C@H]3[C@@H]1CC[C@@]2(O)C#Cc1ccc(OCCCOCCCOCCCOc2ccc(C#C[C@]3(O)CC[C@H]4[C@@H]5CCc6cc(O)ccc6[C@H]5CC[C@@]43C)cc2)cc1 | 0.53 | 2.1
6 | C[C@]12CC[C@@H]3c4ccc(O)cc4CC[C@H]3[C@@H]1CC[C@@]2(O)C#Cc1ccc(OCCCCOCCCCOCCCCOCCCCOCCCOc2ccc(C#C[C@]3(O)CC[C@H]4[C@@H]5CCc6cc(O)ccc6[C@H]5CC[C@@]43C)cc2)cc1 | 0.22 | 1.6
7 | C[C@]12CC[C@@H]3c4ccc(O)cc4CC[C@H]3[C@@H]1CC[C@@]2(O)C#Cc1ccc(OCCCCOCCCCOc2ccc(C#C[C@]3(O)CC[C@H]4[C@@H]5CCc6cc(O)ccc6[C@H]5CC[C@@]43C)cc2)cc1 | 0.82 | 1.8
8 | C[C@]12CC[C@@H]3c4ccc(O)cc4CC[C@H]3[C@@H]1CC[C@@]2(O)C#Cc1ccc(CNCCOCCOCCOCCOCCOCCNCc2ccc(C#C[C@]3(O)CC[C@H]4[C@@H]5CCc6cc(O)ccc6[C@H]5CC[C@@]43C)cc2)cc1 | 3.6 | 6.8
9 | C[C@]12CC[C@@H]3c4ccc(O)cc4CC[C@H]3[C@@H]1CC[C@@]2(O)C#Cc1ccc(OCCCOCCCOCCCOCCCOCCCOCCCOc2ccc(C#C[C@]3(O)CC[C@H]4[C@@H]5CCc6cc(O)ccc6[C@H]5CC[C@@]43C)cc2)cc1 | 0.38 | 1.5
10 | C[C@]12CC[C@@H]3c4ccc(O)cc4CC[C@H]3[C@@H]1CC[C@@]2(O)C#Cc1ccc(OCCCOCCCOCCCOCCCOc2ccc(C#C[C@]3(O)CC[C@H]4[C@@H]5CCc6cc(O)ccc6[C@H]5CC[C@@]43C)cc2)cc1 | 0.003 | 6.9
11 | C[C@]12CC[C@@H]3c4ccc(O)cc4CC[C@H]3[C@@H]1CC[C@@]2(O)C#Cc1ccc(OCCOCCOCCOCCOCCOCCOc2ccc(C#C[C@]3(O)CC[C@H]4[C@@H]5CCc6cc(O)ccc6[C@H]5CC[C@@]43C)cc2)cc1 | 0.68 | 1.2
